Test results: PMC2193921 (The Journal of Experimental Medicine, 2002)

System: highly tumor reactive A2/Melan-A multimer+ CD8+ T cell clones
Conditions: 4 h

SMILES: CC[C@H](C)[C@H](NC(=O)CNC(=O)[C@H](C)NC(=O)[C@H](C)N)C(=O)NCC(=O)N[C@H](C(=O)N[C@@H](CC(C)C)C(=O)N[C@H](C(=O)N[C@H](C(=O)O)C(C)C)[C@@H](C)O)[C@@H](C)CC [Melan-A 27–35]
- IC50: ~1 nM
